pKi: −log10 of the molar value. Values joined by “and” are separate entries in the source; they are usually repeats but may differ in a detail not shown here. Equal values may be shown once.
What was measured:
[1] = system: multiple xenograft models; details: oral, single agent and in combination with standard of care chemotherapies; cited from earlier work
K562 cells = assay: Cell viability of K562 cells after siRNA transfection and 72 hr ABT-263; assay type: cell-based
Method: Transfection of siRNAs was performed using Lipofectamine RNAiMAX according to the manufacturer’s recommendations. […] Caspase-3 activity was determined using the Caspase-GLO 3/7 Assay (Promega) in parallel with the CellTiter-GLO viability assay (Promega). The data are expressed as Caspase-3/7 activity divided by cell viability. […]
Data are means of duplicate samples and are representative of two independent experiments. (XLS) Click here for additional data file.

CAMKK2 = CAMKK2 (Homo sapiens, UniProt Q96RR4); assay: TR-FRET Kinome CAMKK2; assay type: binding; details: CAMKK2 Invitrogen .03(Subs Conc)
CAMKK2, sequence (Q96RR4 whole entry): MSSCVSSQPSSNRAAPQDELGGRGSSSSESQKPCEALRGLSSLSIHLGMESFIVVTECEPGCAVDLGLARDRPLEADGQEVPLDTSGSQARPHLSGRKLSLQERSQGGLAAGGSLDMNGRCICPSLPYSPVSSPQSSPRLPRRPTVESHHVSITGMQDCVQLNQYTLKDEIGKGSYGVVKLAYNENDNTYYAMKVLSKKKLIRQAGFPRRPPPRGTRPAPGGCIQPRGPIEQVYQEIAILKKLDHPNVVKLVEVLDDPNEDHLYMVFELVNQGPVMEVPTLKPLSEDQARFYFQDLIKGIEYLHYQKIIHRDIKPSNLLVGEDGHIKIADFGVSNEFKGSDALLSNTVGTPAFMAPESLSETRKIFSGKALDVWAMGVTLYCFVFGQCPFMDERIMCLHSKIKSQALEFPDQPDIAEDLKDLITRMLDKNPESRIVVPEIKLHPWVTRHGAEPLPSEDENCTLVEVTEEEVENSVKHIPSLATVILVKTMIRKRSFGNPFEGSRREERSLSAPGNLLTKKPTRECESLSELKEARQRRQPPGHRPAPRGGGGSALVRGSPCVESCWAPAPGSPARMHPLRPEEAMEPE
Text: (§1) (XLS) Click here for additional data file.

AMPK = assay: TR-FRET Kinome AMPK; assay type: binding, human; details: AMPK Invitrogen .1(Subs Conc)
Text: as §1

SGK1 = SGK1 (Homo sapiens, UniProt O00141); assay: TR-FRET Kinome SGK1; assay type: binding; details: SGK1 Millipore .1(Subs Conc)
SGK1, sequence (O00141 whole entry): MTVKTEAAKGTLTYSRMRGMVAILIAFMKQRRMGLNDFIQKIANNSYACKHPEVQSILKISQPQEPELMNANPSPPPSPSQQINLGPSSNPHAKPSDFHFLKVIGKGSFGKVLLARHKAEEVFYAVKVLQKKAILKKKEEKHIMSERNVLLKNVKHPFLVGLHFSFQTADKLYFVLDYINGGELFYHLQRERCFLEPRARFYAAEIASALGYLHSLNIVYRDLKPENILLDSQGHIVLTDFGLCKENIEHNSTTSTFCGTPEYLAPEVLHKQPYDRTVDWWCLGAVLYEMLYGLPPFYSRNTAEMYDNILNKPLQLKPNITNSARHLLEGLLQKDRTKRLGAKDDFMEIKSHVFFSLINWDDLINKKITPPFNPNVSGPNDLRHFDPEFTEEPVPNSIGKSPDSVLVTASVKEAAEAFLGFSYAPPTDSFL
Text: as §1

Wee1 = Wee1 (Homo sapiens, UniProt P30291); assay: TR-FRET Kinome Wee1; assay type: binding; details: Wee1 Carna Biosciences .015(Subs Conc)
Text: as §1

STK16 = STK16 (Homo sapiens, UniProt O75716); assay: TR-FRET Kinome STK16; assay type: binding; details: STK16 Invitrogen IVGN Tracer .05(Subs Conc)
STK16, sequence (O75716 whole entry): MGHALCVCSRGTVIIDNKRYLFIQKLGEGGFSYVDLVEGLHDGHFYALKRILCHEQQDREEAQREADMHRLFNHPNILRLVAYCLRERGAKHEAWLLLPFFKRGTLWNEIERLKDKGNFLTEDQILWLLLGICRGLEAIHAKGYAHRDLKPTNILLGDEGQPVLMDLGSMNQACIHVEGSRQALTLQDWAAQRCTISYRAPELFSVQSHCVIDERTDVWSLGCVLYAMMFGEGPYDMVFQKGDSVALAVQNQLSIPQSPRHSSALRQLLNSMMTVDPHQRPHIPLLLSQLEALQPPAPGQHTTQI
Text: as §1

Mcl-1 = Mcl-1 protein level by immunoblotting, quantitation by LiCor Odyssey Imager; assay type: cell-based
Method: SET-2, HEL, MV4;11, and K562 cells were obtained from ATCC and cultured as recommended. UKE-1 cells were purchased from Walter Fiedler (University of Hamburg). Cell lysates were either prepared using CHAPS lysis buffer (10 mM HEPES, pH 7.4, 150 mM NaCl, 1% CHAPS) or cell extraction buffer containing 1% Triton X-100, 0.1% SDS, and 0.5% deoxycholate. All buffers were supplemented with protease and phosphatase inhibitor cocktails prior to use.
Fig 1 Regulation of Mcl-1 and Bcl-XL by JAK2 ^V617F. […] Tyrosine phoshorylation of STAT3 and STAT5 was determined by immunoblotting. […] Constitutive tyrosine phosphorylation of STAT3 and STAT5 was determined by immunoblotting. […] Data represent means +/- standard deviation for two independent determinations each performed in triplicate. […] (G) Quantification of the data shown in (F). Data are expressed as the ratio of intensity of Mcl-1/β-actin for each time point. […] Data are means of duplicate samples and are representative of two independent experiments.
Supplementary file pone.0114363.s003.xls: S3 Dataset Quantitation of western blot data by LiCor Odyssey Imager. (XLS) Click here for additional data file.

EGFR = EGFR (Homo sapiens, UniProt P00533); assay: TR-FRET Kinome EGFR; assay type: binding; details: EGFR Invitrogen .05(Subs Conc)
Text: as §1

Abl = Abl (Homo sapiens, UniProt P00519); assay: TR-FRET Kinome Abl; assay type: binding; details: Abl Invitrogen .025(Subs Conc)
Abl, sequence (P00519 whole entry): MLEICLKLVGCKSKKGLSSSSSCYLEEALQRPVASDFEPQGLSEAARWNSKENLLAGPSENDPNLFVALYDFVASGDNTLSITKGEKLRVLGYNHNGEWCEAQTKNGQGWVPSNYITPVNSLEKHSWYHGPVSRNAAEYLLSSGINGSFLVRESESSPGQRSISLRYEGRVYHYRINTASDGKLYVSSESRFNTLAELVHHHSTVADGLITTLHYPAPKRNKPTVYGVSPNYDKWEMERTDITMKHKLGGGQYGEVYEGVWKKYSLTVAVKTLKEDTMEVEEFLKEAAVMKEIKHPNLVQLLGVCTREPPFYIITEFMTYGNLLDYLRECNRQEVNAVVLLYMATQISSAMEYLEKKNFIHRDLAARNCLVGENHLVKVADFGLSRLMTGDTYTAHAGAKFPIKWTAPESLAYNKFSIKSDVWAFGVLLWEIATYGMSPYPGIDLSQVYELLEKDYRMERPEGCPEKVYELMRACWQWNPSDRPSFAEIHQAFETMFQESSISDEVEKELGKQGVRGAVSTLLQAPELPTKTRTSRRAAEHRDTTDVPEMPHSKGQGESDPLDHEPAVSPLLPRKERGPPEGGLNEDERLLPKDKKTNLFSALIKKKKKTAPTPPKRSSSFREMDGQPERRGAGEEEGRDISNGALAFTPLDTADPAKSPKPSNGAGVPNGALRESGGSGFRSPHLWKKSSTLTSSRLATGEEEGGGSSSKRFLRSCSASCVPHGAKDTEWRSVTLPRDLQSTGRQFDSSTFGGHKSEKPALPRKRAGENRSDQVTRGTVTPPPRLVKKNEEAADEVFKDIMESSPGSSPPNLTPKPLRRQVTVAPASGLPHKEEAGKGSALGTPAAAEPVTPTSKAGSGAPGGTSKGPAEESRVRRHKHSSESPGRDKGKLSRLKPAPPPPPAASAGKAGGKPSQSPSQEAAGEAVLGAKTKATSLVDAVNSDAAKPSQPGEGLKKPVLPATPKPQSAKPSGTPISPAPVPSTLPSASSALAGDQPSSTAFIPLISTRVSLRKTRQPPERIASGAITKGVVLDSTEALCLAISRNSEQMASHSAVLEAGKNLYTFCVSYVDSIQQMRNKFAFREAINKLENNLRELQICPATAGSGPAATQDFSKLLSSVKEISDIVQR
Text: as §1

MST1 = MST1 (Homo sapiens, UniProt Q13043); assay: TR-FRET Kinome MST1; assay type: binding; details: MST1 Invitrogen .05(Subs Conc)
MST1, sequence (Q13043 whole entry): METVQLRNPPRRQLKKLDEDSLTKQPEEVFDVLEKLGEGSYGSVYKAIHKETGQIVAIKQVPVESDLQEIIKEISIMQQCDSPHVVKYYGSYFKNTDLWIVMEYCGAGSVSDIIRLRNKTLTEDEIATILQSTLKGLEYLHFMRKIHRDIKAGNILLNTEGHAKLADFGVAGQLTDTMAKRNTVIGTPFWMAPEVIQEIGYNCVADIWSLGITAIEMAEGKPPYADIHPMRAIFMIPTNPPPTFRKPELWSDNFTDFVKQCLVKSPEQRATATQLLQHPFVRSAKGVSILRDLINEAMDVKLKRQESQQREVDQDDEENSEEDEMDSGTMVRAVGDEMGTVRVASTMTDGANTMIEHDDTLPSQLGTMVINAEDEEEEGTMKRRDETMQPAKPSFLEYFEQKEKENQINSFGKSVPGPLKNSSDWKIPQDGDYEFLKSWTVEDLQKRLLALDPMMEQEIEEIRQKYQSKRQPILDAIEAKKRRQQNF
Text: as §1

DDR1 = DDR1 (Homo sapiens, UniProt Q08345); assay: TR-FRET Kinome DDR1; assay type: binding; details: DDR1 Invitrogen .01(Subs Conc)
Text: as §1

IGF1R = IGF1R (Homo sapiens, UniProt P08069); assay: TR-FRET Kinome IGF1R; assay type: binding; details: IGF1R Invitrogen .05(Subs Conc)
Text: as §1

DYRK1B = DYRK1B (Homo sapiens, UniProt Q9Y463); assay: TR-FRET Kinome DYRK1B; assay type: binding; details: DYRK1B Invitrogen .05(Subs Conc)
DYRK1B, sequence (Q9Y463 whole entry): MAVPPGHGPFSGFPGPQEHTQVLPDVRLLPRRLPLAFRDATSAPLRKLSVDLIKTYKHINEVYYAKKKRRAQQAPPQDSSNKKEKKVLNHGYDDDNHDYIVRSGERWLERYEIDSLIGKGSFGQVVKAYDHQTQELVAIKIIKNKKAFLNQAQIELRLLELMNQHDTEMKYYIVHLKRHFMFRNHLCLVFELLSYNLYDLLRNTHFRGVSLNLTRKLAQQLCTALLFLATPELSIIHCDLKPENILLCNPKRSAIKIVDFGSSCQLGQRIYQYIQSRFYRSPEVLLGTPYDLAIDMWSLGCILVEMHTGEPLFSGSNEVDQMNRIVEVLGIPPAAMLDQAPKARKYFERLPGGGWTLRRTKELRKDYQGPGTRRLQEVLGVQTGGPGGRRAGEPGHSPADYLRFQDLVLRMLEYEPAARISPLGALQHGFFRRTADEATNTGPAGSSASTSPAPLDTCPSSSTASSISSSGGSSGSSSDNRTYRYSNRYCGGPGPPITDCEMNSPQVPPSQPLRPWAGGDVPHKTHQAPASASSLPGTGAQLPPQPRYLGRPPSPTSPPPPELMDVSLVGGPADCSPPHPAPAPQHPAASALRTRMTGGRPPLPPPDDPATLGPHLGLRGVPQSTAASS
Text: as §1

Akt1 = Akt1 (Homo sapiens, UniProt P31749); assay: TR-FRET Kinome Akt1; assay type: binding; details: Akt1 Invitrogen .2(Subs Conc)
Akt1, sequence (P31749 whole entry): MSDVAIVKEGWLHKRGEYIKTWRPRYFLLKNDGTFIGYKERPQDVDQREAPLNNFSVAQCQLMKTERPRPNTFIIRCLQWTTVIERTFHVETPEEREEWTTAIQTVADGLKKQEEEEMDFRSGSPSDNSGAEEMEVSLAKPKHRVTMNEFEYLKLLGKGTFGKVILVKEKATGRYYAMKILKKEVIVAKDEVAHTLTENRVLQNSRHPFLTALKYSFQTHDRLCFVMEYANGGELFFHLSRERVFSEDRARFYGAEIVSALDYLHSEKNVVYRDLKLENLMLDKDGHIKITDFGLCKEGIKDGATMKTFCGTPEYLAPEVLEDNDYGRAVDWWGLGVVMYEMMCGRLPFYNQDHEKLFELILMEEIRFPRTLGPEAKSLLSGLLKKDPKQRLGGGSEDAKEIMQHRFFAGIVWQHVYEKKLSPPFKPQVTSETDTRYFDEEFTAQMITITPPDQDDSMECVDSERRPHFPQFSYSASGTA
Text: as §1

[2] = system: STAT3 binding to the Mcl-1 promoter; assay: ChIP of STAT3 binding to the Mcl-1 promoter (EZ-ChIP); assay type: cell-based; details: 1 μM, 6 hr; cell lines expressing JAK2 V617F, not in lines without this lesion
Pim2 = Pim2 (Homo sapiens, UniProt Q9P1W9); assay: TR-FRET Kinome Pim2; assay type: binding; details: Pim2 Millipore .025(Subs Conc)
Pim2, sequence (Q9P1W9 whole entry): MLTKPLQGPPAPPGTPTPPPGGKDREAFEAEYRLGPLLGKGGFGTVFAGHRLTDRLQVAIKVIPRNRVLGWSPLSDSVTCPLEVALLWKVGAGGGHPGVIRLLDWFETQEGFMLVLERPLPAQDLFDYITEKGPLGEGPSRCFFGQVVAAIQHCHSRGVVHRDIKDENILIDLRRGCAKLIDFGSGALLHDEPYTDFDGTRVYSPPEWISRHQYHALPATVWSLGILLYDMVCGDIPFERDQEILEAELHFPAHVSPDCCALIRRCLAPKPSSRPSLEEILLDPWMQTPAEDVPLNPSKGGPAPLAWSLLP
Text: as §1

CDK11 = assay: TR-FRET Kinome CDK11; assay type: binding, human; details: CDK11 Abbott .025(Subs Conc)
Text: as §1

STK33 = STK33 (Homo sapiens, UniProt Q9BYT3); assay: TR-FRET Kinome STK33; assay type: binding; details: STK33 Invitrogen .005(Subs Conc)
STK33, sequence (Q9BYT3 whole entry): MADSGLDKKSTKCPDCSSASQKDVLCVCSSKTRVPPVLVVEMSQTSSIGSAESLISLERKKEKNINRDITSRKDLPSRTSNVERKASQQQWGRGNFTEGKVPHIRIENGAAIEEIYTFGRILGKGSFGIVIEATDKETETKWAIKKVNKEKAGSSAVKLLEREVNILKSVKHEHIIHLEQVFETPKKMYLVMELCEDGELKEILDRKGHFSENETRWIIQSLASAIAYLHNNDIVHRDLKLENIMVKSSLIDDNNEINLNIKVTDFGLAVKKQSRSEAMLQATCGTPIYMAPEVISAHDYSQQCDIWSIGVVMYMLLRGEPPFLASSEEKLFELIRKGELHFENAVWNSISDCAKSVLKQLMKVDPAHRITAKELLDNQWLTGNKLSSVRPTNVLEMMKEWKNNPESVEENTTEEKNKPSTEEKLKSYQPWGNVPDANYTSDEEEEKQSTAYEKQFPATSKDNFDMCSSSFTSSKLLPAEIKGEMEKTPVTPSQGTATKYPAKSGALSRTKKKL
Text: as §1

## CC1(C)CCC(c2ccc(Cl)cc2)=C(CN2CCN(c3ccc(C(=O)NS(=O)(=O)c4ccc(N[C@H](CCN5CCOCC5)CSc5ccccc5)c(S(=O)(=O)C(F)(F)F)c4)cc3)CC2)C1 [ABT-263]
[1]
  activity in xenograft models: pronounced oral activity
K562 cells; K562, Unt., ABT-263 0.003 uM
  Cell Viability (% Inhibiton): 0%
K562 cells; K562, Unt., ABT-263 0.01 uM
  Cell Viability (% Inhibiton): 0%
K562 cells; K562, Unt., ABT-263 0.03 uM
  Cell Viability (% Inhibiton): 0%
K562 cells; K562, Unt., ABT-263 0.1 uM
  Cell Viability (% Inhibiton): 0%
K562 cells; K562, Unt., ABT-263 0.3 uM
  Cell Viability (% Inhibiton): 0%
K562 cells; K562, Unt., ABT-263 1 uM
  Cell Viability (% Inhibiton): 5%
K562 cells; K562, siMcl1-1, ABT-263 0.003 uM
  Cell Viability (% Inhibiton): 0%
K562 cells; K562, siMcl1-1, ABT-263 0.01 uM
  Cell Viability (% Inhibiton): 0%
K562 cells; K562, siMcl1-1, ABT-263 0.03 uM
  Cell Viability (% Inhibiton): 0%
K562 cells; K562, siMcl1-1, ABT-263 0.1 uM
  Cell Viability (% Inhibiton): 0%
K562 cells; K562, siMcl1-1, ABT-263 0.3 uM
  Cell Viability (% Inhibiton): 0%
K562 cells; K562, siMcl1-1, ABT-263 1 uM
  Cell Viability (% Inhibiton): 0%
K562 cells; K562, siMcl1-2, ABT-263 0.003 uM
  Cell Viability (% Inhibiton): 0%
K562 cells; K562, siMcl1-2, ABT-263 0.01 uM
  Cell Viability (% Inhibiton): 0%
K562 cells; K562, siMcl1-2, ABT-263 0.03 uM
  Cell Viability (% Inhibiton): 0%
K562 cells; K562, siMcl1-2, ABT-263 0.1 uM
  Cell Viability (% Inhibiton): 2%
K562 cells; K562, siMcl1-2, ABT-263 0.3 uM
  Cell Viability (% Inhibiton): 11%
K562 cells; K562, siMcl1-2, ABT-263 1 uM
  Cell Viability (% Inhibiton): 21%
K562 cells; K562, siMcl1-3, ABT-263 0.003 uM
  Cell Viability (% Inhibiton): 0%
K562 cells; K562, siMcl1-3, ABT-263 0.01 uM
  Cell Viability (% Inhibiton): 0%
K562 cells; K562, siMcl1-3, ABT-263 0.03 uM
  Cell Viability (% Inhibiton): 0%
K562 cells; K562, siMcl1-3, ABT-263 0.1 uM
  Cell Viability (% Inhibiton): 0%
K562 cells; K562, siMcl1-3, ABT-263 0.3 uM
  Cell Viability (% Inhibiton): 13%
K562 cells; K562, siMcl1-3, ABT-263 1 uM
  Cell Viability (% Inhibiton): 32%
K562 cells; K562, siMcl1-4, ABT-263 0.003 uM
  Cell Viability (% Inhibiton): 0%
K562 cells; K562, siMcl1-4, ABT-263 0.01 uM
  Cell Viability (% Inhibiton): 3%
K562 cells; K562, siMcl1-4, ABT-263 0.03 uM
  Cell Viability (% Inhibiton): 22%
K562 cells; K562, siMcl1-4, ABT-263 0.1 uM
  Cell Viability (% Inhibiton): 60%
K562 cells; K562, siMcl1-4, ABT-263 0.3 uM
  Cell Viability (% Inhibiton): 75%
K562 cells; K562, siMcl1-4, ABT-263 1 uM
  Cell Viability (% Inhibiton): 80%
K562 cells; K562, siNT-1, ABT-263 0.003 uM
  Cell Viability (% Inhibiton): 0%
K562 cells; K562, siNT-1, ABT-263 0.01 uM
  Cell Viability (% Inhibiton): 0%
K562 cells; K562, siNT-1, ABT-263 0.03 uM
  Cell Viability (% Inhibiton): 0%
K562 cells; K562, siNT-1, ABT-263 0.1 uM
  Cell Viability (% Inhibiton): 0%
K562 cells; K562, siNT-1, ABT-263 0.3 uM
  Cell Viability (% Inhibiton): 2%
K562 cells; K562, siNT-1, ABT-263 1 uM
  Cell Viability (% Inhibiton): 10%

## CC(C)(C)c1nc2c3cc[nH]c(=O)c3c3cc(F)ccc3c2[nH]1 [JAKi-I, JAK inhibitor I]
CAMKK2
  pKi: < 5.51
AMPK
  pKi: 6.83
SGK1
  pKi: 6.20
Wee1
  pKi: < 5.44
STK16
  pKi: < 5.27
Mcl-1; 24-hr time course
  Mcl-1 protein level: sharply declined
Mcl-1; HEL, 1 uM Jaki-I, 2 hr
  Mcl-1 protein (% control): 62 % control
Mcl-1; HEL, 1 uM Jaki-I, 6 hr
  Mcl-1 protein (% control): 45 % control
Mcl-1; HEL, 1 uM Jaki-I, 24 hr
  Mcl-1 protein (% control): 42 % control
Mcl-1; K562, 1 uM Jaki-I, 2 hr
  Mcl-1 protein (% control): 100 % control
Mcl-1; K562, 1 uM Jaki-I, 6 hr
  Mcl-1 protein (% control): 93 % control
Mcl-1; K562, 1 uM Jaki-I, 24 hr
  Mcl-1 protein (% control): 93 % control
Mcl-1; MV4:11, 1 uM Jaki-I, 2 hr
  Mcl-1 protein (% control): 75 % control
Mcl-1; MV4:11, 1 uM Jaki-I, 6 hr
  Mcl-1 protein (% control): 74 % control
Mcl-1; MV4:11, 1 uM Jaki-I, 24 hr
  Mcl-1 protein (% control): 65 % control
Mcl-1; SET-2, 1 uM Jaki-I, 2 hr
  Mcl-1 protein (% control): 68 % control
Mcl-1; SET-2, 1 uM Jaki-I, 6 hr
  Mcl-1 protein (% control): 50 % control
Mcl-1; SET-2, 1 uM Jaki-I, 24 hr
  Mcl-1 protein (% control): 35 % control
Mcl-1; UKE-1, 1 uM Jaki-I, 2 hr
  Mcl-1 protein (% control): 50 % control
Mcl-1; UKE-1, 1 uM Jaki-I, 6 hr
  Mcl-1 protein (% control): 25 % control
Mcl-1; UKE-1, 1 uM Jaki-I, 24 hr
  Mcl-1 protein (% control): 22 % control
Mcl-1; in the presence of cycloheximide (data not shown)
  Mcl-1 protein stability: not altered
EGFR
  pKi: < 5.78
Abl
  pKi: < 5.59
MST1
  pKi: 7.55 and 7.53
DDR1
  pKi: < 5.59
IGF1R
  pKi: < 5.58
DYRK1B
  pKi: < 5.58
Akt1
  pKi: < 5.30
[2]
  STAT3 binding to the MCL1 promoter: disrupted
Pim2
  pKi: 5.68
CDK11
  pKi: < 5.49
STK33
  pKi: 7.52

Source: article PMC4362760, “JAK2^V617F Drives Mcl-1 Expression and Sensitizes Hematologic Cell Lines to Dual Inhibition of JAK2 and Bcl-xL” (PLoS ONE, 2015)
